# Values quoted from earlier work in PubChem BioAssay AID1259409 (Chemical Carcinogenesis Research Information System (CCRIS), 2018).
# “And” between values parts separate entries of the source, which are not always exact repeats. Identical values can stand only once.
# Test system: rodent chemically induced tumor inhibition, incidence and multiplicity
# Test: CCRIS tumor inhibitor studies
# Details: for outcome: Carcinogen: DIMETHYLBENZ[A]ANTHRACENE, Dose [Carcinogen]: 10 NMOL ONCE, Promoter: 12-O-TETRADECANOYLPHORBOL-13-ACETATE, 16561-29-8
compound,measurement,setting,value
NC(N)=NCCC[C@H](N)C(=O)O,"tumour outcome (control, treated, inhibition, significance)","Carcinogen: 7,12-DIMETHYLBENZ[A]ANTHRACENE, 57-97-6, Dose [Inhibitor]: 0, 5% IN A 14% CASEIN DIET BEGINNING 2 WK PRIOR TO CARCINOGEN DOSE AND CONTINUING FOR 21 WK (STUDY DURATION: 23 WK), Route [Inhibitor]: ORAL, Species: RAT, Strain/Sex: SPRAGUE-DAWLEY/FEMALE, Target Tissue: Type of Lesion: MAMMARY GLAND: TUMOR, Dose [Carcinogen]: 7.5 MG IN 0.75 ML SESAME OIL ONCE AT 50 D OF AGE, Promoter: NONE USED","24/30 (80%), 22/30 (73%), 8%, not significant"
same,"tumour outcome (control, treated, inhibition, significance)","Carcinogen: 7,12-DIMETHYLBENZ[A]ANTHRACENE, 57-97-6, Dose [Inhibitor]: 5% L-ARGININE IN DIET STARTING 7 D BEFORE DMBA ADMINISTRATION (STUDY DURATION: 21 WK), Route [Inhibitor]: ORAL, Species: RAT, Strain/Sex: SPRAGUE DAWLEY/FEMALE, Target Tissue: Type of Lesion: MAMMARY GLAND: TUMOR, Dose [Carcinogen]: 15% OIL EMULSION, 25 MG/KG BW ADMINISTERED ONCE, Promoter: NONE USED","95%, 25%, 74%, not calculated"
same,"tumour outcome (control, treated, inhibition, significance)","Carcinogen: 7,12-DIMETHYLBENZ[A]ANTHRACENE, 57-97-6, Dose [Inhibitor]: 5% L-ARGININE IN DIET STARTING 7 D BEFORE DMBA TREATMENT FOR 3 M AND THEN CONTROL DIET (STUDY DURATION: 32 WK), Route [Inhibitor]: ORAL, Species: RAT, Strain/Sex: SPRAGUE DAWLEY/FEMALE, Target Tissue: Type of Lesion: MAMMARY GLAND: TUMOR, Dose [Carcinogen]: 15% OIL EMULSION, 25 MG/KG BW ADMINISTERED ONCE, Promoter: NONE USED","100%, 80%, 20%, not calculated"
same,"tumour outcome (control, treated, inhibition, significance)","Carcinogen: HYDRAZINE SULFATE, 10034-93-2, Dose [Inhibitor]: 1.1 MG/D IN DIET STARTING 1 WK PRIOR TO ADMINISTRATION OF CARCINOGEN UNTIL END OF EXPERIMENT (STUDY DURATION: APPROXIMAT, Route [Inhibitor]: ORAL, Species: MOUSE, Strain/Sex: SWISS/MALE, FEMALE, Target Tissue: Type of Lesion: LIVER AND LUNG: COMBINED TUMORS, Dose [Carcinogen]: 1.1 MG/D 5 D/WK UNTIL 12 MO OF AGE, Promoter: NONE USED","24/29 (83%), 11/18 (61%), 26%, not significant"
same,"tumour outcome (control, treated, inhibition, significance)","Carcinogen: ISONIAZID, 54-85-3, Dose [Inhibitor]: 1.1 MG/MOUSE/D SIMULTANEOUS WITH CARCINOGEN 6 D/WK (STUDY DURATION: 24 MO), Route [Inhibitor]: INTRAGASTRIC, Species: MOUSE, Strain/Sex: SWISS/MALE, Target Tissue: Type of Lesion: LUNG: TUMOR, Dose [Carcinogen]: 1.1 MG/MOUSE/D SIMULTANEOUS WITH INHIBITOR, Promoter: NONE USED","15/29 (52%), 3/10 (30%), 42%, not significant"
same,"tumour outcome (control, treated, inhibition, significance)","Carcinogen: N-METHYL-N-NITROSOUREA, 684-93-5, Dose [Inhibitor]: 0, 5% IN A 14% CASEIN DIET BEGINNING 2 WK PRIOR TO CARCINOGEN DOSE AND CONTINUING FOR 21 WK (STUDY DURATION: 23 WK), Route [Inhibitor]: ORAL, Species: RAT, Strain/Sex: SPRAGUE-DAWLEY/FEMALE, Target Tissue: Type of Lesion: MAMMARY GLAND: TUMOR, Dose [Carcinogen]: 4 MG/100 G BW ONCE AT 50 D OF AGE, Promoter: NONE USED","28/30 (93%), 27/30 (90%), 3%, not significant"
CC(=O)Oc1c(C)c(C)c2c(c1C)CC[C@@](C)(CCC[C@H](C)CCC[C@H](C)CCCC(C)C)O2,"tumour outcome (control, treated, inhibition, significance)","Carcinogen: 7,12-DIMETHYLBENZ[A]ANTHRACENE, 57-97-6, Dose [Inhibitor]: 0, 0.2% IN DIET BEGINNING 1 WK PRIOR TO CARCINOGEN DOSE AND CONTINUING FOR 12 WK (STUDY DURATION: 13 WK), Route [Inhibitor]: ORAL, Species: RAT, Strain/Sex: SPRAGUE-DAWLEY/FEMALE, Target Tissue: Type of Lesion: MAMMARY GLAND: TUMORS, Dose [Carcinogen]: 10 MG IN 1 ML CORN OIL ONCE, Promoter: NONE USED","100%, 80%, 20%, p<0.05"
same,"tumour outcome (control, treated, inhibition, significance)","Carcinogen: 7,12-DIMETHYLBENZ[A]ANTHRACENE, 57-97-6, Dose [Inhibitor]: 0, 10 UMOL 1/WK 5 MIN PRIOR TO EACH PROMOTER DOSE BEGINNING 2 WK POST CARCINOGEN DOSE AND CONTINUING FOR 29 WK (STUDY DU, Route [Inhibitor]: DERMAL, Species: MOUSE, Strain/Sex: SENCAR/FEMALE, Target Tissue: Type of Lesion: SKIN: PAPILLOMA, Dose [Carcinogen]: 25 NMOL ONCE, Promoter: CHRYSAROBIN, 491-58-7","100%, 93%, 7%, not significant"
same,"tumour outcome (control, treated, inhibition, significance)","Carcinogen: 7,12-DIMETHYLBENZ[A]ANTHRACENE, 57-97-6, Dose [Inhibitor]: 0, 40 UMOL 1/WK 5 MIN PRIOR TO EACH PROMOTER DOSE BEGINNING 2 WK PRIOR TO CARCINOGEN DOSE AND CONTINUING FOR 29 WK (STUD, Route [Inhibitor]: DERMAL, Species: MOUSE, Strain/Sex: SENCAR/FEMALE, Target Tissue: Type of Lesion: SKIN: PAPILLOMA, Dose [Carcinogen]: 25 NMOL ONCE, Promoter: CHRYSAROBIN, 491-58-7","100%, 68%, 32%, not calculated"
same,"tumour outcome (control, treated, inhibition, significance)","Carcinogen: ETHYLNITROSOUREA, 759-73-9, Dose [Inhibitor]: 0, 600 MG/KG IN 1:10 (VOLUME: VOLUME) SUNFLOWER OIL IN DIET 5 D/WK FOR 18 MO (STUDY DURATION: 18 MO), Route [Inhibitor]: ORAL, Species: RAT, Strain/Sex: ALBINO/MALE,FEMALE, Target Tissue: Type of Lesion: BRAIN: GLIOMA OR ASTROCYTOMA, Dose [Carcinogen]: 7.5 MG/KG IN SALINE BY INTRAVENOUS INJECTION ONCE 21 D AFTER CONCEPTION","22/54 (41%), 19/50 (38%), 7%, not calculated"
same,"tumour outcome (control, treated, inhibition, significance)","Carcinogen: ETHYLNITROSOUREA, 759-73-9, Dose [Inhibitor]: 0, 600 MG/KG IN 1:10 (VOLUME: VOLUME) SUNFLOWER OIL IN DIET 5 D/WK FOR 18 MO (STUDY DURATION: 18 MO), Route [Inhibitor]: ORAL, Species: RAT, Strain/Sex: ALBINO/MALE,FEMALE, Target Tissue: Type of Lesion: NERVOUS SYSTEM: SCHWANNOMA, Dose [Carcinogen]: 7.5 MG/KG IN SALINE BY INTRAVENOUS INJECTION ONCE 21 D AFTER CONCEPTION","7/54 (13%), 5/50 (10%) 23%, not calculated"
same,"tumour outcome (control, treated, inhibition, significance)","Carcinogen: ETHYLNITROSOUREA, 759-73-9, Dose [Inhibitor]: 0, 600 MG/KG IN 1:10 (VOLUME: VOLUME) SUNFLOWER OIL IN DIET 5 D/WK FOR 18 MO (STUDY DURATION: 18 MO), Route [Inhibitor]: ORAL, Species: RAT, Strain/Sex: ALBINO/MALE,FEMALE, Target Tissue: Type of Lesion: SPINAL CORD: TUMOR, Dose [Carcinogen]: 7.5 MG/KG IN SALINE BY INTRAVENOUS INJECTION ONCE 21 D AFTER CONCEPTION","3/54 (6%), 6/50 (12%), -100%, not calculated"
CCC[Se]C#N,"tumour outcome (control, treated, inhibition, significance)","Carcinogen: 7,12-DIMETHYLBENZ[A]ANTHRACENE, 57-97-6, Dose [Inhibitor]: 0.1, 2 PPM (SELENIUM) IN DIET FOR 3 WK BEGINNING 2 WK PRIOR TO CARCINOGEN DOSE (STUDY DURATION: 25 WK), Route [Inhibitor]: ORAL, Species: RAT, Strain/Sex: SPRAGUE-DAWLEY/FEMALE, Target Tissue: Type of Lesion: MAMMARY GLAND: TUMOR, Dose [Carcinogen]: 10 MG ONCE, Promoter: NONE USED","25/30 (83%), 13/30 (43%), 48%, p<0.05"
Cc1cc2cc3ccc4cccc5ccc(c2oc1=O)c3c45,outcome,"57-97-6, Dose [Inhibitor]: 0, 200 NMOL IN ACETONE ONCE 5 MIN PRIOR TO CARCINOGEN DOSE (STUDY DURATION: 14 WK), Route [Inhibitor]: DERMAL, Species: MOUSE, Strain/Sex: SENCAR/FEMALE, Target Tissue: Type of Lesion: SKIN: PAPILLOMA","8.9, 2.8, 69%, p<0.05"
same,outcome,"57-97-6, Dose [Inhibitor]: 0, 200 NMOL IN ACETONE ONCE 24 HR PRIOR TO CARCINOGEN DOSE (STUDY DURATION: 14 WK), Route [Inhibitor]: DERMAL, Species: MOUSE, Strain/Sex: SENCAR/FEMALE, Target Tissue: Type of Lesion: SKIN: PAPILLOMA","8.9, 2.1, 76%, p<0.05"
same,outcome,"57-97-6, Dose [Inhibitor]: 0, 400 NMOL IN ACETONE ONCE 5 MIN PRIOR TO CARCINOGEN DOSE (STUDY DURATION: 14 WK), Route [Inhibitor]: DERMAL, Species: MOUSE, Strain/Sex: SENCAR/FEMALE, Target Tissue: Type of Lesion: SKIN: PAPILLOMA","8.9, 3.3, 63%, p<0.05"
CC(O)CCCc1ccccc1 (stereo not drawn),"tumour outcome (control, treated, inhibition, significance)","Carcinogen: 4-(METHYLNITROSAMINO)-1-(3-PYRIDYL)-1-BUTANONE, 64091-91-4, Dose [Inhibitor]: 0, 25 UMOL IN 0.1 ML CORN OIL ONCE 2 HR PRIOR TO CARCINOGEN DOSE (STUDY DURATION: 16 WK), Route [Inhibitor]: GAVAGE, Species: MOUSE, Strain/Sex: STRAIN-A/FEMALE, Target Tissue: Type of Lesion: LUNG: TUMOR, Dose [Carcinogen]: 10 UMOL IN 0.1 ML SALINE ONCE, Promoter: NONE USED","100%, 100%, 0%, not significant"
CC1=CCC(=O)O1,"tumour outcome (control, treated, inhibition, significance)","Carcinogen: BENZO[A]PYRENE, 50-32-8, Dose [Inhibitor]: 0.034 MMOL/G IN DIET FOR 5 WK (STUDY DURATION: 21 WK), Route [Inhibitor]: ORAL, Species: MOUSE, Strain/Sex: ICR/HA/FEMALE, Target Tissue: Type of Lesion: FORESTOMACH: TUMOR, Dose [Carcinogen]: 1 MG IN 0.2 ML CORN OIL, 2/WK FOR 4 WK STARTING ON D 8 OF EXPERIMENT, Promoter: NONE USED","95%, 42%, 56%, p<0.01 and 95%, 53%, 44%, p<0.01"
